Experimental data: US20090197851A1, “THERAPY AND USE OF COMPOUNDS IN THERAPY” (MAX-DELBRUCK-CENTRUM FUR MOLEKULARE MEDIZIN, priority 1999, published 2009)

What was measured:
[1] = system: monocyte generated cytokine production in response to LPS; conditions: in the concentrations used; Greve et al. Hepatology 1989; cited from earlier work
[2] = system: LPS-mediated TNF and IL6 production in whole blood; assay: LPS-stimulated cytokine production in whole blood of healthy control subjects (Milenia whole blood assay); assay type: cell-based, human; conditions: LPS 50 pg/ml
Experimental: We have tested the ability of ursodeoxycholic acid (UDCA, FALK Pharma GmbH) to inhibit LPS-mediated TNF production in whole blood of healthy control subjects. Methods: Heparinized whole blood was diluted 1:10 with medium+/-LPS (50 pg/ml), +/-BPI (1 μg/ml), and +/-UDCA ([…]) according to the manufactorer's recommendation ([…] whole blood assay; DPC Biermann, Bad Nauheim, Germany) and incubated for 4 hours at 37° C. In the supernatant, we assessed concentrations of TNF and IL-6 using the semiautomated Immulite system (DPC-Biermann, Bad Nauheim, Germany).

[3] = system: LPS-mediated TNF and IL6 production in whole blood; assay: LPS-stimulated cytokine production in whole blood of patients with cachexia due to liver cirrhosis (in vitro application); assay type: cell-based, human; conditions: 1 mg/ml UDCA, LPS 50 pg/ml, 4 hours
Experimental: We have tested the ability of ursodeoxycholic acid (UDCA, FALK Pharma GmbH) and BPi to inhibit LPS-mediated TNF production in whole blood of patients with cachexia.
(§1) We studied 4 patients with cachexia due to liver cirrhosis. The patients had all weight loss >7.5% compared to their previous normal weight. […] All patients were studied twice on 2 subsequent days (day “−1” and day “0”), see FIG. 9 to 12.
(§2) Methods: Heparinized whole blood was diluted 1:10 with medium+/−LPS (50 pg/ml), +/−BPI (1 μg/ml), and +/−UDCA (1 μg/ml-1 mg/ml) according to the manufactorer's recommendation (Milenia whole blood assay; DPC Biermann, Bad Nauheim, Germany) and incubated for 4 hours at 37° C. In the supernatant, we assessed concentrations of TNF and IL-6 using the semiautomated Immulite system (DPC-Biermann, Bad Nauheim, Germany).

LPS effects [4] = conditions: high concentrations of LBP; cited from earlier work
[5] = system: LPS-induced TNF synthesis in monocytes; assay: LPS-induced TNF synthesis in monocytes with pre-incubated serum; assay type: cell-based, human
Experimental: LPS-induced cytokine synthesis can be inhibited by serum lipoproteins. However, this is not easily seen experimentally, as it needs a certain pre-incubation procedure (18 hours at 37° C.) that we developed in our laboratory.
Methodology for example 4, 5, 7, and 8: TNF assessment: ELISA established in the laboratory of Dr. Schumann using 2 monoclonal antibodies (Pharmingen Inc., USA). Recombinant LBP: produced in the lab of Dr. Schumann. Lipoproteins: isolated from sera of healthy young volunteers, isolated by density gradient centrifugation, monocytes isolated also from blood of healthy young volunteers
Again, serum lacking lipoproteins was unable to block LPS-induced TNF synthesis. The ability to block LPS-induced TNF synthesis could be restored by addition of isolated lipoproteins. […] Methodology as in example 4

LPS effects [6] = conditions: high concentrations of LBP, as seen during the acute phase response; cited from earlier work
[7] = system: spontaneous production of TNF and IL6 of whole blood; assay: Spontaneous production of TNF and IL6 in whole blood of patients with cachexia due to liver cirrhosis; assay type: cell-based, human; conditions: BPi 1 μg/ml, 8 experiments, p<0.05
Experimental: as §1, §2

[8] = 100 μg/ml UDCA, whole blood of healthy control subjects, 4 hours
[9] = 1 mg/ml UDCA, whole blood of healthy control subjects diluted 1:10, 4 hours at 37° C.

**Q.** For C[C@H](CCC(=O)O)[C@H]1CC[C@H]2[C@@H]3[C@H](O)C[C@@H]4C[C@H](O)CC[C@]4(C)[C@H]3CC[C@]12C [chenodeoxycholic acid], which “effectiveness on monocyte generated cytokine production in response to LPS” value [1] is on record?
**A.** The value was “less effective”.

**Q.** For C[C@H](CCC(=O)O)[C@H]1CC[C@H]2[C@@H]3[C@@H](O)C[C@@H]4C[C@H](O)CC[C@]4(C)[C@H]3CC[C@]12C [UDCA, ursodeoxycholic acid], which “reduction of LPS-stimulated IL6 production” value [2, 8] is on record?
**A.** Its value is 43%.

**Q.** And the “reduction of LPS-stimulated TNF production” value [2, 8]?
**A.** Its value is 68%.

**Q.** What about the “reduction of LPS-stimulated IL6 production” value [2, 9] of the same molecule?
**A.** The value was > 95%.

**Q.** And the “reduction of LPS-stimulated TNF production” value [2, 9]?
**A.** The value was > 95%.

**Q.** And the “reduction of LPS-stimulated TNF production (on average)” value ([3]; whole blood of 4 patients with cachexia due to liver cirrhosis)?
**A.** Its value is > 99%.

**Q.** And the “reduction of LPS-stimulated IL6 production (on average)” value ([3]; whole blood of patients with cachexia due to liver cirrhosis)?
**A.** Its value is 97%.

B1: LBP: serum protein which binds to LPS; recombinant LBP produced in the lab of Dr. Schumann (protein, UniProt P18428 26-481, looked up)
Lipopolysaccharide-binding …: ANPGLVARITDKGLQYAAQEGLLALQSELLRITLPDFTGDLRIPHVGRGRYEFHSLNIHSCELLHSALRPVPGQGLSLSISDSSIRVQGRWKVRKSFFKLQGSFDVSVKGISISVNLLLGSESSGRPTVTASSCSSDIADVEVDMSGDLGWLLNLFHNQIESKFQKVLESRICEMIQKSVSSDLQPYLQTLPVTTEIDSFADIDYSLVEAPRATAQMLEVMFKGEIFHRNHRSPVTLLAAVMSLPEEHNKMVYFAISDYVFNTASLVYHEEGYLNFSITDDMIPPDSNIRLTTKSFRPFVPRLARLYPNMNLELQGSVPSAPLLNFSPGNLSVDPYMEIDAFVLLPSSSKEPVFRLSVATNVSATLTFNTSKITGFLKPGKVKVELKESKVGLFNAELLEALLNYYILNTFYPKFNDKLAEGFPLPLLKRVQLYDLGLQIHKDFLFLGANVQYMRV
**Q.** What does the source list for B1?
**A.** blocking of LPS effects in a murine sepsis model (LPS effects [4]): completely block LPS effects; LPS-stimulated TNF production in a monocyte stimulation system ([5]; high concentrations added to normal serum (containing lipoproteins)): reduces LPS-stimulated TNF production; inhibition of LPS activity (LPS-induced TNF production) ([5]; titrated into lipoprotein-deficient serum, high levels of LBP): inhibit LPS activity; blocking of LPS effects in vitro (LPS effects [6]): completely block LPS effects

B2: BPi: protein found in human white blood cells that binds to and neutralises endotoxin (protein, UniProt P17213 32-487, looked up)
Bactericidal …: VNPGVVVRISQKGLDYASQQGTAALQKELKRIKIPDYSDSFKIKHLGKGHYSFYSMDIREFQLPSSQISMVPNVGLKFSISNANIKISGKWKAQKRFLKMSGNFDLSIEGMSISADLKLGSNPTSGKPTITCSSCSSHINSVHVHISKSKVGWLIQLFHKKIESALRNKMNSQVCEKVTNSVSSELQPYFQTLPVMTKIDSVAGINYGLVAPPATTAETLDVQMKGEFYSENHHNPPPFAPPVMEFPAAHDRMVYLGLSDYFFNTAGLVYQEAGVLKMTLRDDMIPKESKFRLTTKFFGTFLPEVAKKFPNMKIQIHVSASTPPHLSVQPTGLTFYPAVDVQAFAVLPNSSLASLFLIGMHTTGSMEVSAESNRLVGELKLDRLLLELKHSNIGPFPVELLQDIMNYIVPILVLPRVNEKLQKGFPLPTPARVQLYNVVLQPHQNFLLFGADVVYK
**Q.** What does the source list for B2?
**A.** spontaneous production of IL6 of whole blood [7]: reduced significantly; spontaneous production of TNF of whole blood [7]: reduced significantly
